Reference: US20240140999A1, “STABILIZED PEPTIDE-MEDIATED TARGETED PROTEIN DEGRADATION” (Dana-Farber Cancer Institute, Inc., priority 2017, published 2024)
“Also recorded” adds a separate entry of the source.

Key:
MCL-1 = biological target: T1, MCL-1 (Homo sapiens, UniProt Q07820); assay: MCL-1 levels by western blot in A375P melanoma cells; format: cell-based; conditions: 10 μM, western blot over time
T1 construct: monitoring of cellular MCL-1 levels by western blot of lysates; endogenous in cells; host or cells: A375P melanoma cells
Description: BIM-C-terminal degron is #IWIAQELRXIGDXFNAYYARR% (SEQ ID NO: 134; #=N-term Ac; %=Lys-degron (see FIG. 3 for the structure of Lys-degron)).
A stapled peptide helix-degron chimeric peptide (FIG. 1) modeled after the pro-apoptotic BIM BH3 domain with an incorporated degron (e.g., Lys-degron, FIG. 2-4) was applied to A375P melanoma cells that express such anti-apoptotic BCL-2 family proteins as MCL-1, which promotes cancer cell survival and chemoresistance.

Cop1 [1] = biological target: T2, Cop1 (Homo sapiens, UniProt Q8NHY2); assay: Cop1-mediated degradation of Myc-tagged MDM2 p60 chimera constructs expressed in 293T cells; format: cell-based; parameters: Cop1-expressing human embryonic kidney 293T cells; endogenous in cells; host or cells: 293T (human embryonic kidney); conditions: native GFDVPD replaced by the sequence; Cop1-expressing 293T cells
Description: The native peptide sequence GFDVPD (SEQ ID NO: 26) within MDM2 is replaced by the sequences indicated (lane 3: SEQ ID NO:27; lane 4: SEQ ID NO:28; lane 5: SEQ ID NO:29; and lane 6: SEQ ID NO:30). […] Lower panel: Cop1 loading control.
(§1) (1) Direct genetic modification: Replacement of natural protein residues in structurally disordered regions with derivatives of the sequence DQIVPEY (SEQ ID NO: 25) can cause the chimera proteins to be degraded by Cop1. For example, replacement of the C-terminal sequence GFDVPD (SEQ ID NO: 26) of the p60 isoform of the protein HDM2 with the Trib1-derived sequence DQIVPD (SEQ ID NO: 30) causes Cop1-mediated degradation of the mutant protein when exogenously expressed in Cop1-expressing human embryonic kidney 293T cells (FIG. 13).

Cop1 [2] = biological target: T2, Cop1; assay: Co-immunoprecipitation of Myc-tagged MDM2 p60 mutant constructs with Cop1 from 293T cells; format: cell-based; parameters: Cop1-expressing human embryonic kidney 293T cells; endogenous in cells; host or cells: 293T (human embryonic kidney)
Description: Sequences: GFDVPD (SEQ ID NO:26); GFDAAD (SEQ ID NO:27); GNDVPD (SEQ ID NO:28); PQTVPD (SEQ ID NO:29); and DQIVPD (SEQ ID NO:30).
as §1

Cop1 [3] = biological target: T2, Cop1; conditions: reported value (Uljon et al.); read-out: binding affinity for Cop1; cited from earlier work
SJSA-1 cells = assay: Cell viability of SJSA-1 cells (Cell Titer Glo); format: cell-based; conditions: thalidomide degron chimeras with distinct linkers, FIG. 12
Protocol: Certain compositions bearing different linkers show no cellular activity (right). Linker1-5 are as depicted in FIG. 5.
A stapled peptide degron chimera modeled after the transactivation domain helix of p53 (ATSP-7041) coupled to a thalidomide degron was applied to cultured cancer cells (SJSA-1, SJSA-X) and MDM2 protein levels were monitored by western blot and compared to that in cells treated with ATSP-7041 alone. The experiment was repeated and cell viability was measured by Cell Titer Glo assay. […] In addition, each of the stapled peptide degron chimeras impaired cancer cell viability in a dose-responsive fashion (FIG. 12). The composition of the linker influenced the presence (FIG. 12, left) or absence (FIG. 12, right) of biological activity.

T2 sequence (Q8NHY2 whole entry): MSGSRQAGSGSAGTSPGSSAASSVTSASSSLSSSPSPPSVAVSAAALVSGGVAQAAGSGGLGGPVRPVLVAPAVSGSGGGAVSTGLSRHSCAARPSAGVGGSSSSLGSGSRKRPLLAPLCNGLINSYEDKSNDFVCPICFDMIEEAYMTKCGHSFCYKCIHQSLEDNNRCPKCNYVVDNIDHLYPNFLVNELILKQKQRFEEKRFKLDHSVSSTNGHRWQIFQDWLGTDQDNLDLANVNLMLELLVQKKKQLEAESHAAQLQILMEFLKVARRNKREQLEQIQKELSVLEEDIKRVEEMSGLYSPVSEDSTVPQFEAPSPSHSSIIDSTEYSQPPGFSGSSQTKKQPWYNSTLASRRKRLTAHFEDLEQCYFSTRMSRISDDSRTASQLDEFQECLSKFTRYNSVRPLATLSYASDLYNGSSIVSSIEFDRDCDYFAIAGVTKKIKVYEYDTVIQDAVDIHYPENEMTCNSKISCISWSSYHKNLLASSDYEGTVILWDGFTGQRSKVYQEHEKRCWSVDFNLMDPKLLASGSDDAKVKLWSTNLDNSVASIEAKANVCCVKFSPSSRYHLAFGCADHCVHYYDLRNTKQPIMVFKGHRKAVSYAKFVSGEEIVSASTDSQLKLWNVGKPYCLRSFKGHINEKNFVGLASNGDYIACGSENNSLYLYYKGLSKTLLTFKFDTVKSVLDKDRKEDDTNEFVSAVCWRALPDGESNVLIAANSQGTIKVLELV

#IWIAQELRXIGDXFNAYYARR% [BIM-C-terminal degron, stapled BIM BH3 peptide; #=N-term Ac; %=Lys-degron (thalidomide on C-terminal lysine side chain)]
cellular MCL-1 protein level (MCL-1): time-dependent decrease in MCL-1 protein; also recorded: induces the degradation of MCL-1

DQIVPD
Cop1-mediated degradation of the MDM2 p60 chimera protein (Cop1 [1]): causes destruction of the p60 chimera protein by the Cop1 protein
binding of the Myc-tagged MDM2 p60 mutant construct to Cop1 (Cop1 [2]): direct binding

DQIVPEY
Kd (Cop1 [3]): 250 ± 40 nM

LTF8EYWAQLX%AA [5-L5]
cell viability / cytotoxic activity (SJSA-1 cells): most potent cytotoxic activity
